Assay results reported in ChEMBL document CHEMBL1777766, “Design, synthesis and in vitro antibacterial activity of 7-(4-alkoxyimino-3-aminomethylpiperidin-1-yl)fluoroquinolone derivatives” (Bioorg Med Chem Lett, 2011).
Values after ≈ are worked out from the molar mass of the structure shown.

How the values were obtained:
Streptococcus pyogenes = assay: Antibacterial activity against Streptococcus pyogenes 556; assay type: functional
Streptococcus pneumoniae [1] = assay: Antibacterial activity against Streptococcus pneumoniae ATCC 6301; assay type: functional
Staphylococcus aureus [2] = assay: Antibacterial activity against methicillin-sensitive Staphylococcus aureus 08-49; assay type: functional
Proteus vulgaris = assay: Antibacterial activity against Proteus vulgaris 56; assay type: functional
Escherichia coli [3] = assay: Antibacterial activity against Extended spectrum beta-lactamase producing Escherichia coli 08-5; assay type: functional
[4] = test system: Staphylococcus epidermidis; assay: Antibacterial activity against Staphylococcus epidermidis ATCC 12228; assay type: functional
Pseudomonas aeruginosa [5] = assay: Antibacterial activity against Pseudomonas aeruginosa 17; assay type: functional
[6] = test system: Acinetobacter calcoaceticus; assay: Antibacterial activity against Acinetobacter calcoaceticus 25001; assay type: functional
Morganella morganii = assay: Antibacterial activity against Morganella morganii 49086; assay type: functional
Escherichia coli [7] = assay: Antibacterial activity against Escherichia coli ATCC 25922; assay type: functional
Staphylococcus aureus [8] = assay: Antibacterial activity against Staphylococcus aureus ATCC 13709; assay type: functional
[9] = test system: Staphylococcus epidermidis; assay: Antibacterial activity against methicillin-sensitive Staphylococcus epidermidis 08-17; assay type: functional
Staphylococcus aureus [10] = assay: Antibacterial activity against methicillin-resistant Staphylococcus aureus 08-52; assay type: functional
Enterococcus faecalis [11] = assay: Antibacterial activity against vancomycin-resistant Enterococcus faecalis EFL1004; assay type: functional
Klebsiella pneumoniae = assay: Antibacterial activity against Klebsiella pneumoniae ATCC 700603; assay type: functional
[12] = test system: Staphylococcus epidermidis; assay: Antibacterial activity against methicillin-resistant Staphylococcus epidermidis 08-18; assay type: functional
Klebsiella aerogenes = assay: Antibacterial activity against Enterobacter aerogenes 45102; assay type: functional
Providencia rettgeri = assay: Antibacterial activity against Proteus rettgeri 49006; assay type: functional
Salmonella typhi = assay: Antibacterial activity against Bacillus typhi 50035; assay type: functional, Salmonella enterica subsp. enterica serovar Typhi; conditions: Salmonella enterica
Streptococcus pneumoniae [13] = assay: Antibacterial activity against penicillin-resistant Streptococcus pneumoniae 08-2; assay type: functional
Enterobacter cloacae = assay: Antibacterial activity against Enterobacter cloacae 45301; assay type: functional
Enterococcus faecalis [14] = assay: Antibacterial activity against Enterococcus faecalis ATCC 51299; assay type: functional
Serratia marcescens = assay: Antibacterial activity against Serratia marcescens 41002; assay type: functional
[15] = Cytotoxicity against african green monkey Vero cells after 24 hrs; assay type: cell-based; conditions: chlorocebus sabaeus
Shigella sonnei = assay: Antibacterial activity against Shigella sonnei 51592; assay type: functional
Pseudomonas aeruginosa [16] = assay: Ratio of MIC for compound to MIC for GMFX against Pseudomonas aeruginosa 17; assay type: functional
Pseudomonas aeruginosa [17] = assay: Ratio of MIC for compound to MIC for CPFX against Pseudomonas aeruginosa 17; assay type: functional
Pseudomonas aeruginosa [18] = assay: Ratio of MIC for compound to MIC for LVFX against Pseudomonas aeruginosa 17; assay type: functional

SMILES	MIC (Streptococcus pyogenes)	MIC (Streptococcus pneumoniae [1])	MIC (Staphylococcus aureus [2])	MIC (Proteus vulgaris)	MIC (Escherichia coli [3])	MIC [4]	MIC (Pseudomonas aeruginosa [5])	MIC [6]	MIC (Morganella morganii)	MIC (Escherichia coli [7])	MIC (Staphylococcus aureus [8])	MIC [9]	MIC (Staphylococcus aureus [10])	MIC (Enterococcus faecalis [11])	MIC (Klebsiella pneumoniae)	MIC [12]	MIC (Klebsiella aerogenes)	MIC (Providencia rettgeri)	MIC (Salmonella typhi)	MIC (Streptococcus pneumoniae [13])	other results
CCO/N=C1\CCN(c2c(F)cc3c(=O)c(C(=O)O)cn(CCF)c3c2F)CC1CN (racemic)	64 µg/mL (≈ 145 µM)	64 µg/mL (≈ 145 µM)	8 µg/mL (≈ 18.2 µM)	16 µg/mL (≈ 36.3 µM)	> 128 µg/mL	16 µg/mL (≈ 36.3 µM)	64 µg/mL (≈ 145 µM)	128 µg/mL (≈ 291 µM)	8 µg/mL (≈ 18.2 µM)	8 µg/mL (≈ 18.2 µM)	8 µg/mL (≈ 18.2 µM)	64 µg/mL (≈ 145 µM)	16 µg/mL (≈ 36.3 µM)	64 µg/mL (≈ 145 µM)	> 128 µg/mL	8 µg/mL (≈ 18.2 µM)	16 µg/mL (≈ 36.3 µM)	32 µg/mL (≈ 72.7 µM)	8 µg/mL (≈ 18.2 µM)	32 µg/mL (≈ 72.7 µM)	MIC (Enterobacter cloacae): 16 µg/mL (≈ 36.3 µM); MIC (Enterococcus faecalis [14]): 16 µg/mL (≈ 36.3 µM); MIC (Serratia marcescens): 16 µg/mL (≈ 36.3 µM); CC50 at 24 h [15]: > 500 µg/mL; MIC (Shigella sonnei): 8 µg/mL (≈ 18.2 µM)
CO/N=C1\CCN(c2nc3c(cc2F)c(=O)c(C(=O)O)cn3-c2ccc(F)cc2F)CC1CN (racemic)	1 µg/mL (≈ 2.1 µM)	1 µg/mL (≈ 2.1 µM)	0.25 µg/mL (≈ 0.526 µM)	8 µg/mL (≈ 16.8 µM)	> 128 µg/mL	0.5 µg/mL (≈ 1.05 µM)	4 µg/mL (≈ 8.41 µM)	4 µg/mL (≈ 8.41 µM)	4 µg/mL (≈ 8.41 µM)	1 µg/mL (≈ 2.1 µM)	0.5 µg/mL (≈ 1.05 µM)	2 µg/mL (≈ 4.21 µM)	2 µg/mL (≈ 4.21 µM)	4 µg/mL (≈ 8.41 µM)	32 µg/mL (≈ 67.3 µM)	0.5 µg/mL (≈ 1.05 µM)	2 µg/mL (≈ 4.21 µM)	8 µg/mL (≈ 16.8 µM)	2 µg/mL (≈ 4.21 µM)	0.5 µg/mL (≈ 1.05 µM)	Ratio (Pseudomonas aeruginosa [16]): 2; Ratio (Pseudomonas aeruginosa [17]): 2; MIC (Enterobacter cloacae): 2 µg/mL (≈ 4.21 µM); Ratio (Pseudomonas aeruginosa [18]): 2; MIC (Enterococcus faecalis [14]): 2 µg/mL (≈ 4.21 µM); MIC (Serratia marcescens): 8 µg/mL (≈ 16.8 µM); CC50 at 24 h [15]: 96 µg/mL (≈ 202 µM); MIC (Shigella sonnei): 2 µg/mL (≈ 4.21 µM)
CCO/N=C1\CCN(c2nc3c(cc2F)c(=O)c(C(=O)O)cn3-c2ccc(F)cc2F)CC1CN (racemic)	4 µg/mL (≈ 8.17 µM)	2 µg/mL (≈ 4.09 µM)	0.25 µg/mL (≈ 0.511 µM)	4 µg/mL (≈ 8.17 µM)	> 128 µg/mL	0.25 µg/mL (≈ 0.511 µM)	4 µg/mL (≈ 8.17 µM)	4 µg/mL (≈ 8.17 µM)	4 µg/mL (≈ 8.17 µM)	2 µg/mL (≈ 4.09 µM)	0.25 µg/mL (≈ 0.511 µM)	1 µg/mL (≈ 2.04 µM)	1 µg/mL (≈ 2.04 µM)	4 µg/mL (≈ 8.17 µM)	32 µg/mL (≈ 65.4 µM)	0.25 µg/mL (≈ 0.511 µM)	2 µg/mL (≈ 4.09 µM)	8 µg/mL (≈ 16.3 µM)	2 µg/mL (≈ 4.09 µM)	0.5 µg/mL (≈ 1.02 µM)	Ratio (Pseudomonas aeruginosa [16]): 2; Ratio (Pseudomonas aeruginosa [17]): 2; MIC (Enterobacter cloacae): 2 µg/mL (≈ 4.09 µM); Ratio (Pseudomonas aeruginosa [18]): 2; MIC (Enterococcus faecalis [14]): 1 µg/mL (≈ 2.04 µM); MIC (Serratia marcescens): 16 µg/mL (≈ 32.7 µM); CC50 at 24 h [15]: 72.6 µg/mL (≈ 148 µM); MIC (Shigella sonnei): 2 µg/mL (≈ 4.09 µM)
CO/N=C1\CCN(c2c(F)cc3c(=O)c(C(=O)O)cn(C4CC4)c3c2OC)CC1CN (racemic)	8 µg/mL (≈ 18.5 µM)	4 µg/mL (≈ 9.25 µM)	0.25 µg/mL (≈ 0.578 µM)	8 µg/mL (≈ 18.5 µM)	> 128 µg/mL	1 µg/mL (≈ 2.31 µM)	8 µg/mL (≈ 18.5 µM)	4 µg/mL (≈ 9.25 µM)	4 µg/mL (≈ 9.25 µM)	4 µg/mL (≈ 9.25 µM)	0.5 µg/mL (≈ 1.16 µM)	4 µg/mL (≈ 9.25 µM)	4 µg/mL (≈ 9.25 µM)	8 µg/mL (≈ 18.5 µM)	64 µg/mL (≈ 148 µM)	4 µg/mL (≈ 9.25 µM)	4 µg/mL (≈ 9.25 µM)	8 µg/mL (≈ 18.5 µM)	4 µg/mL (≈ 9.25 µM)	4 µg/mL (≈ 9.25 µM)	MIC (Enterobacter cloacae): > 128 µg/mL; MIC (Enterococcus faecalis [14]): 4 µg/mL (≈ 9.25 µM); MIC (Serratia marcescens): 8 µg/mL (≈ 18.5 µM); CC50 at 24 h [15]: 395 µg/mL (≈ 914 µM); MIC (Shigella sonnei): 4 µg/mL (≈ 9.25 µM)
CCO/N=C1\CCN(c2c(F)cc3c(=O)c(C(=O)O)cn(C4CC4)c3c2OC)CC1CN (racemic)	8 µg/mL (≈ 17.9 µM)	8 µg/mL (≈ 17.9 µM)	0.25 µg/mL (≈ 0.56 µM)	32 µg/mL (≈ 71.7 µM)	> 128 µg/mL	2 µg/mL (≈ 4.48 µM)	32 µg/mL (≈ 71.7 µM)	8 µg/mL (≈ 17.9 µM)	16 µg/mL (≈ 35.8 µM)	4 µg/mL (≈ 8.96 µM)	1 µg/mL (≈ 2.24 µM)	4 µg/mL (≈ 8.96 µM)	2 µg/mL (≈ 4.48 µM)	8 µg/mL (≈ 17.9 µM)	128 µg/mL (≈ 287 µM)	2 µg/mL (≈ 4.48 µM)	16 µg/mL (≈ 35.8 µM)	32 µg/mL (≈ 71.7 µM)	4 µg/mL (≈ 8.96 µM)	4 µg/mL (≈ 8.96 µM)	MIC (Enterobacter cloacae): > 128 µg/mL; MIC (Enterococcus faecalis [14]): 4 µg/mL (≈ 8.96 µM); MIC (Serratia marcescens): 32 µg/mL (≈ 71.7 µM); CC50 at 24 h [15]: 173 µg/mL (≈ 388 µM); MIC (Shigella sonnei): 8 µg/mL (≈ 17.9 µM)
